molecular target: T1, F508del (Homo sapiens, UniProt P13569, DEL508-508); assay: Protocol 1: membrane potential optical assay (FLIPR III, voltage sensing dye), identification of potentiator compounds; format: cell-based; details: Table 3, compounds of Table 1
T1 construct: expressed in transfected cells
In short: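 NIH 3T3 fibroblasts stably expressing F508del were cultured at 27° C for 24 hrs for temperature correction, then treated with compounds or DMSO and loaded with a voltage-sensing redistribution dye. Forskolin added with a Cl⁻ gradient activated the channel; membrane-potential fluorescence on FLIPR III reported increased gating.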

T1 sequence (P13569 with tags, fused parts or gaps DEL508-508): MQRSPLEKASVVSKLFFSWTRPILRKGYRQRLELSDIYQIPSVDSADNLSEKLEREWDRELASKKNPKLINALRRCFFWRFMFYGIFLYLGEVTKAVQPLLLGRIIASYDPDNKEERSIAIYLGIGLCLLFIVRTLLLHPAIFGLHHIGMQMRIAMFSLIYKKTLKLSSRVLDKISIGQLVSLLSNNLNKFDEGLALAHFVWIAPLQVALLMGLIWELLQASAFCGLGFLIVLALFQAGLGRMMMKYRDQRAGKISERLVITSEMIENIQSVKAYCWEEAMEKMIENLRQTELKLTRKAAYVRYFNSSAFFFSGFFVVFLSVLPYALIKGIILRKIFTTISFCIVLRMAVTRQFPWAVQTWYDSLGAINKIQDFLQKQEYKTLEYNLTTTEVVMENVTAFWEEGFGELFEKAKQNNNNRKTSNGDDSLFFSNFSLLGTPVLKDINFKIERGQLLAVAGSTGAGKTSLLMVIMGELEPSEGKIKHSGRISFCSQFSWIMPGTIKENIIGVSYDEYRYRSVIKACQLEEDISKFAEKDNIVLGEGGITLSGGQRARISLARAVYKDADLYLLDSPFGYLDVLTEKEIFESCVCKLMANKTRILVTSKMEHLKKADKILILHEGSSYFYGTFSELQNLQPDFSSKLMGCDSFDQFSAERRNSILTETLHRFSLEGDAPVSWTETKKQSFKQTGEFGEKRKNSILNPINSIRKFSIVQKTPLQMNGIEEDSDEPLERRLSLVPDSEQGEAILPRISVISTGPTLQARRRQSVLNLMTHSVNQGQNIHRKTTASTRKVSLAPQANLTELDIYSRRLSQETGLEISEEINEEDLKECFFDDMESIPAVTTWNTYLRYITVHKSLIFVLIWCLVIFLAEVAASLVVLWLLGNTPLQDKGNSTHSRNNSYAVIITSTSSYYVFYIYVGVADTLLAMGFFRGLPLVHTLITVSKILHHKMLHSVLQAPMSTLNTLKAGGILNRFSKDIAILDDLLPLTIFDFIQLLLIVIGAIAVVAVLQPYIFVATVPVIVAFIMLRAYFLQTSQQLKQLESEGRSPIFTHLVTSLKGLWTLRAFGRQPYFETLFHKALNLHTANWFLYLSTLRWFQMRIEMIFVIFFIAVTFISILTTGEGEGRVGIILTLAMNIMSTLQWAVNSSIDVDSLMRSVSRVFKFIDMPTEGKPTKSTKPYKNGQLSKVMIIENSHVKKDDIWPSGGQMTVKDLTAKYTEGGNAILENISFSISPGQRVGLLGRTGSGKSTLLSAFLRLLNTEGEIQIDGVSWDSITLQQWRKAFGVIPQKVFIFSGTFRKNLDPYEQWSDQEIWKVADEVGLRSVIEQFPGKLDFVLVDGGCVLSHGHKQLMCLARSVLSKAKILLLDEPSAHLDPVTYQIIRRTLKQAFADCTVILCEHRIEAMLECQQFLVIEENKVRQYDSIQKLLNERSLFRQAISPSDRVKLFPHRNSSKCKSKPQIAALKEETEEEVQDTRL

Row | Compound | EC30
1 | CC(C)COc1cc(F)cc(-c2ccc(C(=O)NS(=O)(=O)c3ccn[nH]3)c(N3CCC4(CCC4)CC3)n2)c1 [Compound 944, 2-(7-azaspiro[3.5]nonan-7-yl)-6-(3-fluoro-5-isobutoxy-phenyl)-N-(1H-pyrazol-5-ylsulfonyl)pyridine-3-carboxamide] | +++ (“+++” means <3 uM)
2 | C[C@@H]1CN(c2ncccc2C(=O)NS(=O)(=O)c2cccc(N)n2)C(C)(C)C1 [Compound 946, N-[(6-amino-2-pyridyl)sulfonyl]-2-[(4S)-2,2,4-trimethylpyrrolidin-1-yl]pyridine-3-carboxamide] | ++ (“++” means between 3 uM and 10 uM)
3 | COc1cccc(S(=O)(=O)NC(=O)C2Cc3ccccc3CCN2Cc2c(C)cc(C)cc2C)n1 (stereo not drawn) [Compound 948, N-[(6-methoxy-2-pyridyl)sulfonyl]-3-[(2,4,6-trimethylphenyl)methyl]-1,2,4,5-tetrahydro-3-benzazepine-4-carboxamide] | +++ (“+++” means <3 uM)
4 | CC1CN(c2nc(-c3cccc(NC(C)C)n3)ccc2C(=O)NS(=O)(=O)c2cccc(N)n2)C(C)(C)C1 (stereo not drawn) [Compound 951, N-[(6-amino-2-pyridyl)sulfonyl]-6-[6-(isopropylamino)-2-pyridyl]-2-(2,2,4-trimethylpyrrolidin-1-yl)pyridine-3-carboxamide] | +++ (“+++” means <3 uM)
5 | CC(C)COc1cc(F)cc(-c2ccc(C(=O)NS(=O)(=O)c3ccn[nH]3)c(N3CCC(C)(C)C3C)n2)c1 (stereo not drawn) [Compound 952, 6-(3-fluoro-5-isobutoxy-phenyl)-N-(1H-pyrazol-5-ylsulfonyl)-2-(2,3,3-trimethylpyrrolidin-1-yl)pyridine-3-carboxamide] | +++ (“+++” means <3 uM)
6 | CC(C)COc1cc(F)cc(-c2ccc(C(=O)NS(=O)(=O)c3cccc(N)n3)c(N3CCCC4(CC4)C3)n2)c1 [Compound 953, N-[(6-amino-2-pyridyl)sulfonyl]-2-(7-azaspiro[2.5]octan-7-yl)-6-(3-fluoro-5-isobutoxy-phenyl)pyridine-3-carboxamide] | +++ (“+++” means <3 uM)
7 | C#CC1CCCN(c2nc(-c3ccc(OC(C)C)nc3)ccc2C(=O)NS(=O)(=O)c2cccc(N)n2)C1 (stereo not drawn) [Compound 954, N-[(6-amino-2-pyridyl)sulfonyl]-2-(3-ethynyl-1-piperidyl)-6-(6-isopropoxy-3-pyridyl)pyridine-3-carboxamide] | +++ (“+++” means <3 uM)
8 | CC(C)COc1cccc(-c2ccc(C(=O)NS(=O)(=O)c3cccc(N)n3)c(N3[C@H](C)CC[C@@H]3C)n2)c1 [Compound 957, N-[(6-amino-2-pyridyl)sulfonyl]-2-[(2S,5R)-2,5-dimethylpyrrolidin-1-yl]-6-(3-isobutoxyphenyl)pyridine-3-carboxamide] | +++ (“+++” means <3 uM)
9 | CC(C)COc1cccc(-c2ccc(C(=O)NS(=O)(=O)c3ccc[nH]c3=O)c(N3CCC(C)CC3)n2)c1 [Compound 958, 6-(3-isobutoxyphenyl)-2-(4-methyl-1-piperidyl)-N-[(2-oxo-1H-pyridin-3-yl)sulfonyl]pyridine-3-carboxamide] | +++ (“+++” means <3 uM)
10 | CC(C)COc1cc(F)cc(-c2ccc(C(=O)NS(=O)(=O)c3cccc(N)n3)c(OC3CCC(F)(F)CC3)n2)c1 [Compound 961, N-[(6-amino-2-pyridyl)sulfonyl]-2-(4,4-difluorocyclohexoxy)-6-(3-fluoro-5-isobutoxy-phenyl)pyridine-3-carboxamide] | +++ (“+++” means <3 uM)
11 | CCCCOc1cccc(-c2ccc(C(=O)NS(=O)(=O)c3ccc[nH]c3=O)c(Oc3c(C)cc(C)cc3C)n2)c1Cl [Compound 964, 6-(3-butoxy-2-chloro-phenyl)-N-[(2-oxo-1H-pyridin-3-yl)sulfonyl]-2-(2,4,6-trimethylphenoxy)pyridine-3-carboxamide] | +++ (“+++” means <3 uM)

Continued, values first:

Row | EC30 | Compound
12 | +++ (“+++” means <3 uM) | CCc1ccccc1-c1cnc(Oc2c(C)cc(C)cc2C)c(C(=O)NS(=O)(=O)c2cccc(N)n2)c1 [Compound 945, N-[(6-amino-2-pyridyl)sulfonyl]-5-(2-ethylphenyl)-2-(2,4,6-trimethylphenoxy)pyridine-3-carboxamide]
13 | +++ (“+++” means <3 uM) | Cc1cc(C)c(Oc2nc(C(C)(C)C)ccc2C(=O)NS(=O)(=O)c2cccc(NCCN(C)C)n2)c(C)c1 [Compound 947, 6-tert-butyl-N-[[6-(2-dimethylaminoethylamino)-2-pyridyl]sulfonyl]-2-(2,4,6-trimethylphenoxy)pyridine-3-carboxamide]
14 | +++ (“+++” means <3 uM) | CC(C)Oc1ccc(-c2ccc(C(=O)NS(=O)(=O)c3cccc(N)n3)c(N3C[C@H](C)CC3(C)C)n2)cn1 [Compound 949, N-[(6-amino-2-pyridyl)sulfonyl]-6-(6-isopropoxy-3-pyridyl)-2-[(4R)-2,2,4-trimethylpyrrolidin-1-yl]pyridine-3-carboxamide]
15 | +++ (“+++” means <3 uM) | COc1ccc(-c2ccc(C(=O)NS(=O)(=O)c3cccc(N)n3)c(Oc3c(C)cc(C)cc3C)n2)c(OC)c1 [Compound 950, N-[(6-amino-2-pyridyl)sulfonyl]-6-(2,4-dimethoxyphenyl)-2-(2,4,6-trimethylphenoxy)pyridine-3-carboxamide]
16 | ++ (“++” means between 3 uM and 10 uM) | CCCOc1cccc(-c2ccc(C(=O)NS(=O)(=O)c3ccc[nH]c3=O)c(Oc3c(C)cc(C)cc3C)n2)c1Cl [Compound 955, 6-(2-chloro-3-propoxy-phenyl)-N-[(2-oxo-1H-pyridin-3-yl)sulfonyl]-2-(2,4,6-trimethylphenoxy)pyridine-3-carboxamide]
17 | +++ (“+++” means <3 uM) | COc1ccc(-c2ccc(C(=O)NS(=O)(=O)c3cccc(N)n3)c(Oc3c(C)cc(C)cc3C)n2)c(F)c1 [Compound 956, N-[(6-amino-2-pyridyl)sulfonyl]-6-(2-fluoro-4-methoxy-phenyl)-2-(2,4,6-trimethylphenoxy)pyridine-3-carboxamide]
18 | +++ (“+++” means <3 uM) | COc1cc(C(C)(C)C)nc(Oc2c(C)cc(C)cc2C)c1C(=O)NS(=O)(=O)c1cccc(N)c1 [Compound 959, N-(3-aminophenyl)sulfonyl-6-tert-butyl-4-methoxy-2-(2,4,6-trimethylphenoxy)pyridine-3-carboxamide]
19 | ++ (“++” means between 3 uM and 10 uM) | CCOC1CCCN(c2nc(-c3ccc(OC(C)C)nc3)ccc2C(=O)NS(=O)(=O)c2cccc(N)n2)C1 (stereo not drawn) [Compound 960, N-[(6-amino-2-pyridyl)sulfonyl]-2-(3-ethoxy-1-piperidyl)-6-(6-isopropoxy-3-pyridyl)pyridine-3-carboxamide]
20 | ++ (“++” means between 3 uM and 10 uM) | Cc1cc(C)c(Oc2nc(-c3ccc(CN(C)C)cc3)ccc2C(=O)NS(=O)(=O)c2cccc(N)n2)c(C)c1 [Compound 962, N-[(6-amino-2-pyridyl)sulfonyl]-6-[4-(dimethylaminomethyl)phenyl]-2-(2,4,6-trimethylphenoxy)pyridine-3-carboxamide]
21 | ++ (“++” means between 3 uM and 10 uM) | CCc1ccc(C(=O)NS(=O)(=O)c2cccc(N)n2)c(Oc2c(C)cc(C)cc2C)n1 [Compound 963, N-[(6-amino-2-pyridyl)sulfonyl]-6-ethyl-2-(2,4,6-trimethylphenoxy)pyridine-3-carboxamide]

Source: patent publication US10758534B2 (Vertex Pharmaceuticals Incorporated, priority 2014, dated 2020)
